Here are results for 13 compounds from PubChem BioAssay (NCI).

Structures are written as SMILES.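 Assay format: 96-well plates, 48-hour exposure. Here, GI50 denotes the concentration required for 50% inhibition of growth. TGI: concentration producing complete growth inhibition.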 Where a SMILES comes first, the peptide text is derived from it. [ ]: non-standard residue; d: D form. Phe(4-Cl) = N[CH](Cc1ccc(Cl)cc1)C(=O)O A value given as a limit tells only on which side of the number the result lay.

Common to all, as to assay: growth of human tumour cells (NCI), 48 h
Assay [1] has as its system SNB-19 CNS.
For assay [2], the system named is RXF 393 renal.
In assay [3] the test system is IGROV1 ovarian.
For assay [4], the system named is SK-OV-3 ovarian.
Assay [5] relates to HOP-18 NSCLC.
For assay [6], the system named is SW-620 colon.
The test system of assay [7] is A498 renal.
Assay [8] deals with DMS 114 small cell lung.
The test system of assay [9] is CCRF-CEM leukemia.
The test system of assay [10] is T-47D breast.

For `CCOC(=O)NC(=O)c1cn(CCOCCOC(=O)NCCCCCCNC(=O)OCCOCCn2cc(C(=O)NC(=O)OCC)c(=O)[nH]c2=O)c(=O)[nH]c1=O`, the TGI in assay [1], in assay [2], in [3], in assay [4], in assay [5] and in assay [6] was over 100 µM each time. Also, the TGI in assay [7] and in assay [8] was over 100 µM in each case.
On to `CC1=C(C)CC2(CCCCC2=O)S(=O)C1` (stereo unspecified), for which the TGI in [1], in [2], in assay [3], in assay [4], in assay [5] and in [6] was over 100 µM in each case. The TGI in assay [7], in assay [8] and in [9] was over 100 µM each time.
As for `CC[O-].CC[O-].O=C1c2ccccc2C(=O)c2c(O)ccc([O-])c21.O=C1c2ccccc2C(=O)c2c(O)ccc([O-])c21.[Ti+4]`, the TGI in assay [1] is over 100 µM; in [2], 90.4 µM; in [3] it was over 100 µM; in [4] it was over 100 µM; in assay [5], over 100 µM; in assay [6], over 100 µM. The TGI in [7], in assay [8] and in assay [9] was over 100 µM throughout. In addition, the GI50 in assay [5] was 74.4 µM.
For the compound `CC(O)C(NC(=O)C(Cc1ccccc1)NC(=O)C(NC(=O)C(CCCCN)NC(=O)C(Cc1c[nH]c2ccccc12)NC(=O)C(Cc1ccc(O)cc1)NC(=O)C(Cc1ccc(Cl)cc1)NC(=O)C(N)Cc1ccccc1)C(C)O)C(N)=O` (stereo unspecified) (H-F[Phe(4-Cl)]YWKTFT-NH2; configuration not given here), the TGI in assay [1] came to 34.1 µM; in [2], 30.3 µM; in assay [3], 44.8 µM; in assay [4], 46.4 µM; in assay [7] it was 34 µM; in assay [8] it was 37.8 µM. Besides, the TGI in [9] was determined as 29.3 µM.
For `C[N+](C)(C)CC1CCCC(C[N+](C)(C)C)C1=O` (stereo unspecified), the TGI in [10] is 3.33 µM; in assay [1], 38 µM; in [2], 3.18 µM; in assay [3], 11.5 µM; in assay [4], 26 µM; in assay [5] it was 1 µM. Also, the TGI worked out at 20.2 µM in assay [7], 3.49 µM in assay [8] and 1.28 µM in [9].
`COC(=O)c1cccc2cccc(C(=O)Nc3ccc(C)cc3C)c12`: the TGI in [1], in [2], in [3], in [4], in assay [5] and in assay [6] was over 100 µM each time. In addition, the TGI in [7], in assay [8] and in [9] was over 100 µM throughout.
Take `C=CCCCCCCCCC(=O)NS(=O)(=O)c1ccccc1`: the TGI in assay [1], in assay [2], in assay [3], in assay [4], in assay [5] and in [6] was over 100 µM each time. The TGI in [7] and in [8] was over 100 µM in each case.
For `CCOC(=O)CN=c1nc(SC)sc2c(C(=O)OCC)nc(Sc3ccccc3)n12`, the TGI in assay [3], in assay [4], in assay [5], in [6], in assay [8] and in assay [9] was over 100 µM throughout.
On to `COc1ccc2c(c1)C=C([N+](=O)[O-])C(C1OC(C)(C)OC1C1COC(C)(C)O1)O2` (stereo unspecified), for which the TGI in assay [10] worked out at 26.6 µM; in [1], 25.7 µM; in assay [2], 8.7 µM; in assay [3], 31.7 µM; in [4], 24.2 µM; in assay [5], 42 µM. The TGI in assay [6] turned out to be 6.81 µM; in [7], 33.3 µM; in [8] it was 8.55 µM; in assay [9], 4.2 µM.
Take `CC(C)(C)OC(=O)Cc1ccc2c(ccn2Cc2ccccc2)c1`: the TGI in assay [1], in [2], in assay [3], in assay [4], in assay [5] and in assay [6] was over 100 µM throughout. The TGI in [7], in assay [8] and in [9] was over 100 µM in each case.
Consider `N#Cc1nc(C2OC(COC(=O)c3ccccc3)C(OC(=O)c3ccccc3)C2OC(=O)c2ccccc2)oc1N` (stereo unspecified), for which the TGI in assay [1], in assay [2], in assay [3], in assay [4], in assay [5] and in assay [6] was over 100 µM each time. Further, the TGI in assay [7] is over 100 µM; in assay [8] it was over 100 µM; in [9] it was 34.6 µM.
Turning to `Cc1noc(C)c1CCCOC1COc2ccccc2OCCOCCOc2ccccc2OC1`, the TGI in [1], in [2], in [3], in [4], in [5] and in [6] was over 100 µM each time. Moreover, the TGI in [7] and in [8] was over 100 µM each time.
As to `CN(C)CC/C(=N\Nc1c(Cl)cccc1Cl)c1ccccc1`, the TGI is over 100 µM in assay [1]; 28.5 µM in assay [2]; 92.4 µM in assay [3]; 52 µM in assay [4]; 51.1 µM in assay [5]; 36.8 µM in assay [6]. Further, the results for the TGI in assay [7], in assay [8] and in assay [9] were 34.8 µM, 34 µM and 79.3 µM, respectively.
